The test system of assay [1] is vancomycin-resistant Enterococcus faecalis. Nature of the assay: checkerboard assay, MIC. As to conditions: VRE.
Assay [2] deals with methicillin-resistant Staphylococcus aureus. Nature of the assay: checkerboard assay, MIC. The conditions noted are these: MRSA.
Assay [3] concerns Bacillus anthracis (anthrax). The format is cell-based.
In assay [4] the test system is Burkholderia pseudomallei (melioidosis). The format is cell-based.
For the next assay, the system named is Yersinia pestis (plague). The format is cell-based.
The subject of assay [5] is Francisella tularensis (rabbit fever). The format is cell-based.
Another assay deals with S. aureus BAA-44. The experiment in a line: MIC alone or in combination with tetracycline. As to conditions: for MIC: Staphylococcus aureus, BAA44.
The test system of the next assay is Acinetobacter baumannii. Nature of the assay: inhibitory concentrations in hospital-acquired clinical wound isolates.
The subject of the next assay is Enterococcus faecium. The description is as above.
Another assay concerns Pseudomonas aeruginosa. The assay is described as above.
The test system of a further assay is Staphylococcus aureus. The description is as above.
For the next assay, the system named is Candida albicans. The description is as above.
Assay [6] has as its system Vancomycin-resistant Staphylococcus aureus (VRSA). Nature of the assay: inhibitory concentrations against drug-resistant bacteria (potentiation of vancomycin). As to conditions: at 16 ug/ml vancomycin.
The test system of assay [7] is Vancomycin-resistant Enterococcus faecium (VRE). Described as above. The conditions noted are these: at 16 μg/ml vancomycin.
Assay [8] concerns Methicillin-resistant Staphylococcus aureus (MRSA). The experiment in a line: inhibitory concentrations against drug-resistant bacteria (potentiation of methicillin). As to conditions: at 4 ug/ml methicillin.

Molecules are shown by their SMILES.

Turning to `COc1ccc2cc3[n+](cc2c1OC)CCc1cc2c(cc1-3)OCO2` [Berberine, berberine, reference compound], the minimal inhibitory concentration (MIC) in [1] and in assay [2] was 500 µg/mL throughout.
As for `S=C(S)N1CCCC1` [PDTC, pyrrolidine dithiocarbamate], the activity against biothreats entry (in [3]; in assay [4]; in the assay with Yersinia pestis (plague); in assay [5]) was “active” in each case. In addition, the MIC (in general, the lowest concentration found to suppress growth) in assay [1] is 62.5 µg/mL; in assay [2], 62.5 µg/mL; with S. aureus BAA-44 it was 9 µg/mL. Also, the “effect of PDTC and tetracycline (FIG. 1)” value with S. aureus BAA-44 (combination with tetracycline) is recorded as “synergistic effect”. Besides, the Inhibitory concentration in the assay on Acinetobacter baumannii (clinical isolate 6043) came out at 100 µg/mL; in the assay on Acinetobacter baumannii (clinical isolate 6063) it was 100 µg/mL; with Acinetobacter baumannii (clinical isolate 6175) it was 100 µg/mL; in the assay with Acinetobacter baumannii (clinical isolate 6272) it was 100 µg/mL; in the assay on Acinetobacter baumannii (clinical isolate 6838) it was 100 µg/mL; with Enterococcus faecium (clinical isolate 6080), 50 µg/mL. Further, the Inhibitory concentration is 50 µg/mL in the assay with Enterococcus faecium (clinical isolate 6246); 50 µg/mL in the assay on Enterococcus faecium (clinical isolate 6831); 100 µg/mL with Pseudomonas aeruginosa (clinical isolate 5983); 100 µg/mL in the assay on Pseudomonas aeruginosa (clinical isolate 6162); 100 µg/mL in the assay on Pseudomonas aeruginosa (clinical isolate 6186); 100 µg/mL in the assay with Pseudomonas aeruginosa (clinical isolate 6295). Further, the Inhibitory concentration was 100 µg/mL in the assay on Pseudomonas aeruginosa (clinical isolate 6311); 25 µg/mL with Staphylococcus aureus (clinical isolate 6061); 12.5 µg/mL with Staphylococcus aureus (clinical isolate 6108); 25 µg/mL with Staphylococcus aureus (clinical isolate B-313); 50 µg/mL in the assay with Staphylococcus aureus (clinical isolate B-767); 50 µg/mL with Staphylococcus aureus (clinical isolate B-14358). Moreover, the Inhibitory concentration worked out at 12.5 µg/mL with Candida albicans (clinical isolate Y-236); 12.5 µg/mL in the assay on Candida albicans (clinical isolate Y-477); 12.5 µg/mL with Candida albicans (clinical isolate Y-6359); 12.5 µg/mL with Candida albicans (clinical isolate Y-12983); 6.25 µg/mL with Candida albicans (clinical isolate Y-27022); 13 µg/mL in assay [6] (clinical isolate VRS 1). Further, the Inhibitory concentration in [6] (clinical isolate VRS 9) came out at 13 µg/mL; in [6] (clinical isolate VRS 116), 13 µg/mL; in assay [7] (clinical isolate 6098), 50 µg/mL; in assay [7] (clinical isolate 6185) it was 50 µg/mL; in assay [7] (clinical isolate 6591), 50 µg/mL; in [8] (clinical isolate 6006), 25 µg/mL. Also, the Inhibitory concentration in [8] (clinical isolate 6051), in assay [8] (clinical isolate 6544), in [8] (clinical isolate 6605) and in assay [8] (clinical isolate 6607) was 13 µg/mL throughout.
With `CN(C)[C@@H]1C(O)=C(C(N)=O)C(=O)[C@@]2(O)C(O)=C3C(=O)c4c(O)cccc4[C@@](C)(O)[C@H]3C[C@@H]12` [TET, tetracycline, reference compound], the MIC in the assay with S. aureus BAA-44 came to 32 µg/mL.
